Test system: Chlorella sorokiniana
Assay: Algal growth by percent transmittance at 750 nm
Assay type: cell-based
Protocol: Two species of Chlorella were examined for growth—Chlorella sorokiniana a freshwater species and Chlorella minutissima a marine species. […] Growth was measured on day 0, 1, 2, 3, 4, 5, 6, 7, 8, 9 and 10. […] The following media were purchased from UTEX Culture Collection of Algae: Enriched Salt Water Medium and Volvox Dextrose Medium.
The algae were grown for 48 hours in the appropriate medium. The initial suspension was enumerated for each alga and is referred to as the starting inoculums. Chlorella sorokiniana was at 381 million cells per milliliter and Chlorella minutissima was at 19 million cells per milliliter. One milliliter of the algal solution was placed into 9 mLs of medium and mixed by vortexing. […] The tube of algae and MSM were incubated at room temperature with exposure to sunlight. […] Each dilution of MSM for each organism was set up in and analyzed in triplicate for each time interval measured. The samples were measured by percent transmittance on a UV/VIS spectrophotometer at wavelength 750 nm. The medium stock was tested for percent transmittance background levels at every time interval were measured. The lower percent transmittance indicated a higher growth factor.

Methylsulfonylmethane [MSM]
Growth, percent transmittance at 750 nm (MSM 0.5%, Sample Day 0): 47.3% | Growth, percent transmittance at 750 nm (MSM 0.5%, Sample Day 1): 41.8% | Growth, percent transmittance at 750 nm (MSM 0.5%, Sample Day 2): 29.3% | Growth, percent transmittance at 750 nm (MSM 0.5%, Sample Day 3): 29.6% | Growth, percent transmittance at 750 nm (MSM 0.5%, Sample Day 4): 19.0% | Growth, percent transmittance at 750 nm (MSM 0.5%, Sample Day 5): 12.4% | Growth, percent transmittance at 750 nm (MSM 0.5%, Sample Day 6): 12.5% | Growth, percent transmittance at 750 nm (MSM 0.5%, Sample Day 7): 11.9% | Growth, percent transmittance at 750 nm (MSM 0.5%, Sample Day 8): 12.2% | Growth, percent transmittance at 750 nm (MSM 0.5%, Sample Day 9): 7.5% | Growth, percent transmittance at 750 nm (MSM 0.5%, Sample Day 10): 6.4% | Growth, percent transmittance at 750 nm (MSM 1%, Sample Day 0): 48.7% | Growth, percent transmittance at 750 nm (MSM 1%, Sample Day 1): 42.5% | Growth, percent transmittance at 750 nm (MSM 1%, Sample Day 2): 37.5% | Growth, percent transmittance at 750 nm (MSM 1%, Sample Day 3): 37.5% | Growth, percent transmittance at 750 nm (MSM 1%, Sample Day 4): 17.3% | Growth, percent transmittance at 750 nm (MSM 1%, Sample Day 5): 13.5% | Growth, percent transmittance at 750 nm (MSM 1%, Sample Day 6): 13.0% | Growth, percent transmittance at 750 nm (MSM 1%, Sample Day 7): 12.5% | Growth, percent transmittance at 750 nm (MSM 1%, Sample Day 8): 12.4% | Growth, percent transmittance at 750 nm (MSM 1%, Sample Day 9): 7.8% | Growth, percent transmittance at 750 nm (MSM 1%, Sample Day 10): 6.6% | Growth, percent transmittance at 750 nm (MSM 5%, Sample Day 0): 35.6% | Growth, percent transmittance at 750 nm (MSM 5%, Sample Day 1): 31.2% | Growth, percent transmittance at 750 nm (MSM 5%, Sample Day 2): 27.4% | Growth, percent transmittance at 750 nm (MSM 5%, Sample Day 3): 21.4% | Growth, percent transmittance at 750 nm (MSM 5%, Sample Day 4): 18.2% | Growth, percent transmittance at 750 nm (MSM 5%, Sample Day 5): 15.7% | Growth, percent transmittance at 750 nm (MSM 5%, Sample Day 6): 15.9% | Growth, percent transmittance at 750 nm (MSM 5%, Sample Day 7): 16.3% | Growth, percent transmittance at 750 nm (MSM 5%, Sample Day 8): 17.0% | Growth, percent transmittance at 750 nm (MSM 5%, Sample Day 9): 13.7% | Growth, percent transmittance at 750 nm (MSM 5%, Sample Day 10): 12.8% | Growth, percent transmittance at 750 nm (MSM 10%, Sample Day 0): 31.2% | Growth, percent transmittance at 750 nm (MSM 10%, Sample Day 1): 31.3% | Growth, percent transmittance at 750 nm (MSM 10%, Sample Day 2): 29.7% | Growth, percent transmittance at 750 nm (MSM 10%, Sample Day 3): 28.4% | Growth, percent transmittance at 750 nm (MSM 10%, Sample Day 4): 29.0% | Growth, percent transmittance at 750 nm (MSM 10%, Sample Day 5): 28.7% | Growth, percent transmittance at 750 nm (MSM 10%, Sample Day 6): 27.1% | Growth, percent transmittance at 750 nm (MSM 10%, Sample Day 7): 27.6% | Growth, percent transmittance at 750 nm (MSM 10%, Sample Day 8): 27.1% | Growth, percent transmittance at 750 nm (MSM 10%, Sample Day 9): 76.4% | Growth, percent transmittance at 750 nm (MSM 10%, Sample Day 10): 93.8% | Growth, percent transmittance at 750 nm (MSM 20%, Sample Day 0): 19.3% | Growth, percent transmittance at 750 nm (MSM 20%, Sample Day 1): 21.9% | Growth, percent transmittance at 750 nm (MSM 20%, Sample Day 2): 24.1% | Growth, percent transmittance at 750 nm (MSM 20%, Sample Day 3): 28.1% | Growth, percent transmittance at 750 nm (MSM 20%, Sample Day 4): 31.4% | Growth, percent transmittance at 750 nm (MSM 20%, Sample Day 5): 33.6% | Growth, percent transmittance at 750 nm (MSM 20%, Sample Day 6): 36.8% | Growth, percent transmittance at 750 nm (MSM 20%, Sample Day 7): 40.6% | Growth, percent transmittance at 750 nm (MSM 20%, Sample Day 8): 40.8% | Growth, percent transmittance at 750 nm (MSM 20%, Sample Day 9): 84.8% | Growth, percent transmittance at 750 nm (MSM 20%, Sample Day 10): 96.7% | Growth, percent transmittance at 750 nm (MSM […], Sample Day 0): 40.6% | Growth, percent transmittance at 750 nm (MSM […], Sample Day 1): 43.1% | Growth, percent transmittance at 750 nm (MSM […], Sample Day 2): 44.9% | Growth, percent transmittance at 750 nm (MSM […], Sample Day 3): 43.8% | Growth, percent transmittance at 750 nm (MSM […], Sample Day 4): 26.1% | Growth, percent transmittance at 750 nm (MSM […], Sample Day 5): 10.3% | Growth, percent transmittance at 750 nm (MSM […], Sample Day 6): 10.9% | Growth, percent transmittance at 750 nm (MSM […], Sample Day 7): 11.0% | Growth, percent transmittance at 750 nm (MSM […], Sample Day 8): 11.2% | Growth, percent transmittance at 750 nm (MSM […], Sample Day 9): 8.4% | Growth, percent transmittance at 750 nm (MSM […], Sample Day 10): 6.0%

— patent US20110105623A1 (Biogenic Innovations, LLC, priority 2009, published 2011)
